# According to patent publication US20060052297A1, “Method of up-regulating tumor antigen expression using thymalfasin” (priority 2002, published 2006):
# Key:
# [1] = Safety of thymalfasin in rats; format: in vivo, rat
# Method: (§1) TLP expression-enhancing amounts of thymalfasin peptide can be determined by routine dose-titration experiments. Up-regulation of TLP can be achieved in vivo by administration of between 2 μg/kg and 6 mg/kg body weight of thymalfasin, preferably between 20 μg/kg and 200 μg/kg.
# [2] = subcutaneously injected; Rost, et al., 1998; cited from earlier work
# [3] = Safety of thymalfasin in humans; format: in vivo, human
# Method: as §1
substance,measurement,setting,value
Ac-SDAAVDTSSEITTKDLKEKKEVVEEAEN-OH [thymalfasin],dose found to be safe,[1],≤ 6 mg/kg/day
same,plasma half-life,[2],about 2 hours
same,dose found to be safe,[3],≤ 16 mg/dose/day
